Measured values taken from patent US20060069132A1, “Azolecarboxamide herbicides” (priority 2004, published 2006).
Where two headings read alike, the source gives them in different places.

Key:
barnyardgrass [1] = assay: Test B flooded paddy test; assay type: in vivo, Echinochloa crus-galli; details: 1000 g ai/ha, visual rating, scale 0 to 100 (0 no effect, 100 complete control), 13 to 15 days
How it was run: (§1)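 Postemergence plants were sprayed with formulated test chemicals at 2 to 18 cm height (1- to 4-leaf stage); paddy species were grown to the 2-leaf stage. After 13 to 15 days in a greenhouse, injury was rated visually against untreated controls on a 0–100 scale (0 = no effect, 100 = complete control).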

wild oat = assay: Test B postemergence herbicide test; assay type: in vivo, Avena fatua
How it was run: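 Greenhouse test; postemergence application to plants at 1–4 leaves (2–18 cm); paddy species at 2 leaves; evaluated visually vs controls at 13–15 days; scale 0–100 (100 = complete control).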

rice = assay: Test B flooded paddy test; assay type: in vivo, Oryza sativa; details: 1000 g ai/ha, visual rating, scale 0 to 100 (0 no effect, 100 complete control), 13 to 15 days
How it was run: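 Scale 0–100: zero equals no visible effect, 100 complete control, judged by eye relative to controls. Timing: 13 to 15 days in greenhouse post-treatment. Growth stage at spraying: two leaves (paddy) or one to four leaves, 2–18 cm (postemergence).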

cocklebur = assay: Test B pre-/postemergence herbicide test; assay type: in vivo, Xanthium strumarium; details: for pest or weed control at 125 g/ha / pest or weed control at 500 g/ha: Xanthium strumarium; for pest or weed control at 125 g/ha: 125 g ai/ha; for pest or weed control at 500 g/ha: 500 g ai/ha
How it was run: (§2)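 Seeds were planted and treated preemergence with compounds formulated in a non-phytotoxic solvent mixture containing surfactant, while plants at the 1- to 4-leaf stage (2 to 18 cm) received postemergence sprays. Flooded paddy plants were grown to the 2-leaf stage. After 13 to 15 days in a greenhouse, injury was visually rated 0–100 against untreated controls.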

morningglory = assay: Test B pre-/postemergence herbicide test; assay type: in vivo, Ipomoea coccinea; details: for pest or weed control at 125 g/ha / pest or weed control at 500 g/ha: Ipomoea, 336 h; for pest or weed control at 125 g/ha: 125 g ai/ha; for pest or weed control at 500 g/ha: 500 g ai/ha
How it was run: as §2

giant foxtail = assay: Test B pre-/postemergence herbicide test; assay type: in vivo, Setaria faberi; details: for pest or weed control at 125 g/ha / pest or weed control at 500 g/ha: Setaria faberi, 336 h; for pest or weed control at 125 g/ha: 125 g ai/ha; for pest or weed control at 500 g/ha: 500 g ai/ha
How it was run: (§3)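 Formulation: non-phytotoxic solvent mix with surfactant. Timing: preemergence on seed and postemergence on 2–18 cm plants, applied concurrently. Readout after 13–15 d greenhouse: visual 0–100 control rating against controls.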

[2] = system: small flower umbrella sedge; assay: Test B flooded paddy test; assay type: in vivo, Cyperus difformis; details: 1000 g ai/ha, visual rating, scale 0 to 100 (0 no effect, 100 complete control), 13 to 15 days
How it was run: as §1

ducksalad = assay: Test B flooded paddy test; assay type: in vivo, Heteranthera limosa; details: 1000 g ai/ha, visual rating, scale 0 to 100 (0 no effect, 100 complete control), 13 to 15 days
How it was run: as §1

lambsquarters = assay: Test B pre-/postemergence herbicide test; assay type: in vivo, Chenopodium album; details: for pest or weed control at 125 g/ha / pest or weed control at 500 g/ha: Chenopodium album, 336 h; for pest or weed control at 125 g/ha: 125 g ai/ha; for pest or weed control at 500 g/ha: 500 g ai/ha
How it was run: as §3

velvetleaf = assay: Test B pre-/postemergence herbicide test; assay type: in vivo, Abutilon theophrasti; details: for pest or weed control at 125 g/ha / pest or weed control at 500 g/ha: Abutilon theophrasti, 336 h; for pest or weed control at 125 g/ha: 125 g ai/ha; for pest or weed control at 500 g/ha: 500 g ai/ha
How it was run: as §3

blackgrass = assay: Test B postemergence herbicide test; assay type: in vivo, Alopecurus myosuroides
How it was run: as §1

corn = assay: Test B pre-/postemergence herbicide test; assay type: in vivo, Zea mays
How it was run: as §3

large crabgrass = assay: Test B pre-/postemergence herbicide test; assay type: in vivo, Digitaria sanguinalis; details: for pest or weed control at 125 g/ha / pest or weed control at 500 g/ha: Digitaria sanguinalis; for pest or weed control at 125 g/ha: 125 g ai/ha; for pest or weed control at 500 g/ha: 500 g ai/ha
How it was run: as §3

pigweed = assay: Test B pre-/postemergence herbicide test; assay type: in vivo, Amaranthus retroflexus; details: for pest or weed control at 125 g/ha / pest or weed control at 500 g/ha: Amaranthus retroflexus, 336 h; for pest or weed control at 125 g/ha: 125 g ai/ha; for pest or weed control at 500 g/ha: 500 g ai/ha
How it was run: as §3

barnyardgrass [3] = assay: Test B pre-/postemergence herbicide test; assay type: in vivo, Echinochloa crus-galli; details: for pest or weed control at 125 g/ha / pest or weed control at 500 g/ha: Echinochloa crus-galli; for pest or weed control at 125 g/ha: 125 g ai/ha; for pest or weed control at 500 g/ha: 500 g ai/ha
How it was run: as §2

[4] = post-emergence, postemergence, visual rating, scale 0 (no effect) to 100 (complete control), read-out: Cocklebur plant response rating
[5] = post-emergence, postemergence, visual rating, scale 0 (no effect) to 100 (complete control), read-out: Morningglory plant response rating
[6] = post-emergence, postemergence, visual rating, scale 0 (no effect) to 100 (complete control), read-out: Foxtail, Giant plant response rating
[7] = post-emergence, postemergence, visual rating, scale 0 (no effect) to 100 (complete control), read-out: Lambsquarters plant response rating
[8] = post-emergence, postemergence, visual rating, scale 0 (no effect) to 100 (complete control), read-out: Velvetleaf plant response rating
[9] = post-emergence, postemergence, visual rating, scale 0 (no effect) to 100 (complete control), read-out: Crabgrass, Large plant response rating
[10] = post-emergence, postemergence, visual rating, scale 0 (no effect) to 100 (complete control), read-out: Pigweed plant response rating
[11] = post-emergence, postemergence, visual rating, scale 0 (no effect) to 100 (complete control), read-out: Barnyardgrass plant response rating
[12] = Postemergence, 250 g ai/ha, scale 0 (no effect) to 100 (complete control)
[13] = postemergence, 62 g ai/ha, scale 0 to 100

CCn1nc(C(C)(C)C)cc1C(=O)Nc1cc(C(=O)OC)ccn1 [Compound 151, methyl 2-[[[3-(1,1-dimethylethyl)-1-ethyl-1H-pyrazol-5-yl]carbonyl]amino]-4-pyridinecarboxylate]
pest or weed control at 1000 g/ha (barnyardgrass [1]; Echinochloa crus-galli, 336 h, read-out: Barnyardgrass plant response rating): 0%
pest or weed control at 125 g/ha (wild oat; Avena fatua, post-emergence, 336 h, postemergence, 125 g ai/ha, visual rating, scale 0 (no effect) to 100 (complete control), read-out: Oat, Wild plant response rating): 10%
pest or weed control at 500 g/ha (wild oat; Avena fatua, post-emergence, 336 h, postemergence, 500 g ai/ha, visual rating, scale 0 (no effect) to 100 (complete control), read-out: Oat, Wild plant response rating): 30%
plant injury at 1000 g/ha (rice; Oryza sativa, 336 h, read-out: Rice plant response rating): 0%
pest or weed control at 125 g/ha (cocklebur; [4]): 0%
pest or weed control at 500 g/ha (cocklebur; [4]): 0%
pest or weed control at 500 g/ha (cocklebur; pre-emergence, visual rating 0-100, 0 no effect, 100 complete control, read-out: Plant response rating, Cocklebur): 0%
pest or weed control at 125 g/ha (cocklebur; pre-emergence, preemergence, 0 to 100 scale, 0 is no effect, 100 is complete control, read-out: Plant response rating, Cocklebur): 0%
pest or weed control at 125 g/ha (morningglory; [5]): 10%
pest or weed control at 500 g/ha (morningglory; [5]): 30%
pest or weed control at 500 g/ha (morningglory; pre-emergence, visual rating 0-100, 0 no effect, 100 complete control, read-out: Plant response rating, Morningglory): 0%
pest or weed control at 125 g/ha (morningglory; pre-emergence, preemergence, 0 to 100 scale, 0 is no effect, 100 is complete control, read-out: Plant response rating, Morningglory): 0%
pest or weed control at 125 g/ha (giant foxtail; [6]): 10%
pest or weed control at 500 g/ha (giant foxtail; [6]): 20%
pest or weed control at 500 g/ha (giant foxtail; pre-emergence, visual rating 0-100, 0 no effect, 100 complete control, read-out: Plant response rating, Foxtail, Giant): 10%
pest or weed control at 125 g/ha (giant foxtail; pre-emergence, preemergence, 0 to 100 scale, 0 is no effect, 100 is complete control, read-out: Plant response rating, Foxtail, Giant): 0%
pest or weed control at 1000 g/ha ([2]; Cyperus difformis, 336 h, read-out: Sedge, Umbrella plant response rating): 60%
pest or weed control at 1000 g/ha (ducksalad; Heteranthera limosa, 336 h, read-out: Ducksalad plant response rating): 0%
pest or weed control at 125 g/ha (lambsquarters; [7]): 0%
pest or weed control at 500 g/ha (lambsquarters; [7]): 50%
pest or weed control at 500 g/ha (lambsquarters; pre-emergence, visual rating 0-100, 0 no effect, 100 complete control, read-out: Plant response rating, Lambsquarters): 0%
pest or weed control at 125 g/ha (lambsquarters; pre-emergence, preemergence, 0 to 100 scale, 0 is no effect, 100 is complete control, read-out: Plant response rating, Lambsquarters): 0%
pest or weed control at 125 g/ha (velvetleaf; [8]): 10%
pest or weed control at 500 g/ha (velvetleaf; [8]): 20%
pest or weed control at 500 g/ha (velvetleaf; pre-emergence, visual rating 0-100, 0 no effect, 100 complete control, read-out: Plant response rating, Velvetleaf): 0%
pest or weed control at 125 g/ha (velvetleaf; pre-emergence, preemergence, 0 to 100 scale, 0 is no effect, 100 is complete control, read-out: Plant response rating, Velvetleaf): 0%
pest or weed control at 125 g/ha (blackgrass; Alopecurus myosuroides, post-emergence, 336 h, postemergence, 125 g ai/ha, visual rating, scale 0 (no effect) to 100 (complete control), read-out: Blackgrass plant response rating): 10%
pest or weed control at 500 g/ha (blackgrass; Alopecurus myosuroides, post-emergence, 336 h, postemergence, 500 g ai/ha, visual rating, scale 0 (no effect) to 100 (complete control), read-out: Blackgrass plant response rating): 30%
plant injury at 125 g/ha (corn; Zea mays, post-emergence, postemergence, 125 g ai/ha, visual rating, scale 0 (no effect) to 100 (complete control), read-out: Corn plant response rating): 10%
plant injury at 500 g/ha (corn; Zea mays, post-emergence, postemergence, 500 g ai/ha, visual rating, scale 0 (no effect) to 100 (complete control), read-out: Corn plant response rating): 10%
Corn plant response rating (crop injury, 0 = no effect, 100 = complete kill) at 500 g/ha (corn; Zea mays, pre-emergence, 500 g ai/ha, visual rating 0-100, 0 no effect, 100 complete control): 0%
Corn plant response rating (crop injury, 0 = no effect, 100 = complete kill) at 125 g/ha (corn; Zea mays, pre-emergence, preemergence, 125 g ai/ha, 0 to 100 scale, 0 is no effect, 100 is complete control): 0%
pest or weed control at 125 g/ha (large crabgrass; [9]): 0%
pest or weed control at 500 g/ha (large crabgrass; [9]): 0%
pest or weed control at 500 g/ha (large crabgrass; pre-emergence, visual rating 0-100, 0 no effect, 100 complete control, read-out: Plant response rating, Crabgrass, Large): 10%
pest or weed control at 125 g/ha (large crabgrass; pre-emergence, preemergence, 0 to 100 scale, 0 is no effect, 100 is complete control, read-out: Plant response rating, Crabgrass, Large): 0%
pest or weed control at 125 g/ha (pigweed; [10]): 10%
pest or weed control at 500 g/ha (pigweed; [10]): 30%
pest or weed control at 500 g/ha (pigweed; pre-emergence, visual rating 0-100, 0 no effect, 100 complete control, read-out: Plant response rating, Pigweed): 0%
pest or weed control at 125 g/ha (pigweed; pre-emergence, preemergence, 0 to 100 scale, 0 is no effect, 100 is complete control, read-out: Plant response rating, Pigweed): 0%
pest or weed control at 125 g/ha (barnyardgrass [3]; [11]): 0%
pest or weed control at 500 g/ha (barnyardgrass [3]; [11]): 10%
pest or weed control at 500 g/ha (barnyardgrass [3]; pre-emergence, visual rating 0-100, 0 no effect, 100 complete control, read-out: Plant response rating, Barnyardgrass): 10%
pest or weed control at 125 g/ha (barnyardgrass [3]; pre-emergence, preemergence, 0 to 100 scale, 0 is no effect, 100 is complete control, read-out: Plant response rating, Barnyardgrass): 0%

CCNC(=O)c1ccnc(NC(=O)c2cc(C(C)(C)C)nn2CC)c1 [Compound 152]
Barnyardgrass plant response rating (barnyardgrass [1]): 80
Oat, Wild plant response rating (wild oat; [12]): 20
Oat, Wild plant response rating (wild oat; [13]): 10
Rice plant response rating (rice): 70
Cocklebur plant response rating (cocklebur; [12]): 90
Cocklebur plant response rating (cocklebur; [13]): 60
Morningglory plant response rating (morningglory; [12]): 60
Morningglory plant response rating (morningglory; [13]): 50
Foxtail, Giant plant response rating (giant foxtail; [12]): 20
Foxtail, Giant plant response rating (giant foxtail; [13]): 10
Sedge, Umbrella plant response rating [2]: 90
Ducksalad plant response rating (ducksalad): 80
Lambsquarters plant response rating (lambsquarters; [12]): 80
Lambsquarters plant response rating (lambsquarters; [13]): 70
Velvetleaf plant response rating (velvetleaf; [12]): 50
Velvetleaf plant response rating (velvetleaf; [13]): 50
Blackgrass plant response rating (blackgrass; [12]): 20
Blackgrass plant response rating (blackgrass; [13]): 20
Corn plant response rating (corn; [12]): 30
Corn plant response rating (corn; [13]): 20
Crabgrass, Large plant response rating (large crabgrass; [12]): 20
Crabgrass, Large plant response rating (large crabgrass; [13]): 10
Pigweed plant response rating (pigweed; [12]): 90
Pigweed plant response rating (pigweed; [13]): 50
Barnyardgrass plant response rating (barnyardgrass [3]; [12]): 40
Barnyardgrass plant response rating (barnyardgrass [3]; [13]): 30
